Test results: ChEMBL document CHEMBL4152253, “New developments in non-quinolone-based antibiotics for the inhibiton of bacterial gyrase and topoisomerase IV” (Eur J Med Chem, 2018)

Key:
DNA gyrase = DNA gyrase (Staphylococcus aureus, UniProt P0A0K8+P20831); experiment: Inhibition of Staphylococcus aureus DNA gyrase; format: protein-complex assay
DNA gyrase subunit B = DNA gyrase subunit B (Staphylococcus aureus, UniProt P0A0K8); experiment: Inhibition of Staphylococcus aureus GyrB

IC50 (DNA gyrase) | IC50 (DNA gyrase subunit B) | SMILES
15 µM | – | Cc1occc1C(=O)NNC(=S)NC(=O)c1ccccc1
– | 0.009 µM | C=C1CC[C@@H](O[C@H]2C[C@@](O)([C@H](C)NC(=O)c3[nH]c(C)c(Cl)c3Cl)[C@H](O)[C@@H](C)O2)[C@@H]2C=C[C@H](C)C(/C(O)=C3\C(=O)[C@H](C(C)C)N([C@H]4O[C@H](C)[C@H](OC(N)=O)[C@H](OC(C)=O)[C@@H]4OC)C3=O)[C@@H]12 (some centres not stated) [KIBDELOMYCIN]
